Active and inactive are the calls of the source. The calls are words filed in the database; no cut-off is given here.

For series [1], the system named is BT-474. Description: Cytotoxicity against human BT474 cells assessed as cell survival at 10 uM after 48 hrs by MTT assay relative to control. The note with it: BT-474, 48 h, read-out: Survival. It counts as functional.
Series [2] has as its system MCF7. Description: Cytotoxicity against human MCF7 cells assessed as cell survival at 10 uM after 48 hrs by MTT assay relative to control. It counts as functional. The following applies: MCF7, 48 h, read-out: Survival.
For series [3], the system named is MDA-MB-231. As to the kind of experiment: Cytotoxicity against human MDA-MB-231 cells assessed as cell survival at 10 uM after 48 hrs by MTT assay relative to control. It counts as functional. The note with it: MDA-MB-231, 48 h, read-out: Survival.
The subject of series [4] is HCT-116. Description: Cytotoxicity against human HCT116 cells assessed as cell survival at 10 uM after 48 hrs by MTT assay relative to control. It counts as functional. The following applies: HCT-116, 48 h, read-out: Survival.
The test system of series [5] is Jurkat. Description: Cytotoxicity against human Jurkat cells assessed as cell survival at 10 uM after 48 hrs by MTT assay relative to control. It counts as functional. The note with it: read-out: Survival.
In series [6] the test system is BT-474. Description: Cytotoxicity against human BT474 cells assessed as reduction in cell survival after 48 hrs by MTT assay. It counts as functional, cell-based. The following applies: BT-474, 48 h.
In series [7] the test system is MCF7. As to the kind of experiment: Cytotoxicity against human MCF7 cells assessed as reduction in cell survival after 48 hrs by MTT assay. The following applies: MCF7, 48 h. It counts as functional, cell-based.
Series [8] has as its system MDA-MB-231. Description: Cytotoxicity against human MDA-MB-231 cells assessed as reduction in cell survival after 48 hrs by MTT assay. The following applies: MDA-MB-231, 48 h. It counts as functional, cell-based.
Series [9] has as its system HCT-116. Description: Cytotoxicity against human HCT116 cells assessed as reduction in cell survival after 48 hrs by MTT assay. It counts as functional, cell-based. The following applies: HCT-116, 48 h.
Series [10] deals with Jurkat. As to the kind of experiment: Cytotoxicity against human Jurkat cells assessed as reduction in cell survival after 48 hrs by MTT assay. It counts as functional, cell-based.
Series [11] has as its system BT-474. As to the kind of experiment: Toxicity in human BT474 cells at 20 uM after 40 hrs by LDH assay. It counts as cell-based. The note with it: bt-474, 40 h.
For series [12], the system named is MCF7. Description: Toxicity in human MCF7 cells at 20 uM after 40 hrs by LDH assay. It counts as cell-based. The following applies: mcf7, 40 h.
The test system of series [13] is MDA-MB-231. As to the kind of experiment: Toxicity in human MDA-MB-231 cells at 20 uM after 40 hrs by LDH assay. It counts as cell-based. The following applies: mda-mb-231, 40 h.
Series [14] has as its system HCT-116. Description: Toxicity in human HCT116 cells at 20 uM after 40 hrs by LDH assay. It counts as cell-based. The following applies: hct-116, 40 h.
In series [15] the test system is Jurkat. As to the kind of experiment: Toxicity in human Jurkat cells at 20 uM after 40 hrs by LDH assay. It counts as cell-based.
Series [16] is filed under the species Sus scrofa. As to the kind of experiment: Inhibition of porcine brain tubulin polymerization at 0.6 uM incubated for 5 mins by fluorimetry.
The nature of series [17]: (§1) Inhibition of porcine brain tubulin polymerization incubated for 5 mins by fluorimetry. The arrangement: species or system Sus scrofa.
Series [18] is filed under the species Sus scrofa. Described as §1.
The species named for a further series is Capra hircus. As to the kind of experiment: Inhibition of colchicine binding to goat brain tubulin pre-incubated for 20 mins before colchine addition and measured after 45 mins by fluorescence based assay.
Series [19] concerns Jurkat. As to the kind of experiment: Induction of apoptosis in human Jurkat cells increase in caspase 3/7 activity at 1 uM measured up to 180 mins by fluorescence assay relative to control. It counts as functional.
Series [20] deals with MCF7. Description: Cell cycle arrest in human MCF7 cells assessed as G2/M phase accumulation at 3 uM after […] by propidium iodide staining based flow cytometry. It counts as functional.
The target in series [21] is Cyclin-dependent kinase 4 (Homo sapiens, UniProt P11802). As to the kind of experiment: Inhibition of CDK4 (unknown origin).
Series [22] concerns the target Receptor tyrosine-protein kinase erbB-2 (Homo sapiens, UniProt P04626). Description: Inhibition of c-erbbeta2 (unknown origin).

Chain of Receptor tyrosine-protein kinase erbB-2 (P04626 whole entry): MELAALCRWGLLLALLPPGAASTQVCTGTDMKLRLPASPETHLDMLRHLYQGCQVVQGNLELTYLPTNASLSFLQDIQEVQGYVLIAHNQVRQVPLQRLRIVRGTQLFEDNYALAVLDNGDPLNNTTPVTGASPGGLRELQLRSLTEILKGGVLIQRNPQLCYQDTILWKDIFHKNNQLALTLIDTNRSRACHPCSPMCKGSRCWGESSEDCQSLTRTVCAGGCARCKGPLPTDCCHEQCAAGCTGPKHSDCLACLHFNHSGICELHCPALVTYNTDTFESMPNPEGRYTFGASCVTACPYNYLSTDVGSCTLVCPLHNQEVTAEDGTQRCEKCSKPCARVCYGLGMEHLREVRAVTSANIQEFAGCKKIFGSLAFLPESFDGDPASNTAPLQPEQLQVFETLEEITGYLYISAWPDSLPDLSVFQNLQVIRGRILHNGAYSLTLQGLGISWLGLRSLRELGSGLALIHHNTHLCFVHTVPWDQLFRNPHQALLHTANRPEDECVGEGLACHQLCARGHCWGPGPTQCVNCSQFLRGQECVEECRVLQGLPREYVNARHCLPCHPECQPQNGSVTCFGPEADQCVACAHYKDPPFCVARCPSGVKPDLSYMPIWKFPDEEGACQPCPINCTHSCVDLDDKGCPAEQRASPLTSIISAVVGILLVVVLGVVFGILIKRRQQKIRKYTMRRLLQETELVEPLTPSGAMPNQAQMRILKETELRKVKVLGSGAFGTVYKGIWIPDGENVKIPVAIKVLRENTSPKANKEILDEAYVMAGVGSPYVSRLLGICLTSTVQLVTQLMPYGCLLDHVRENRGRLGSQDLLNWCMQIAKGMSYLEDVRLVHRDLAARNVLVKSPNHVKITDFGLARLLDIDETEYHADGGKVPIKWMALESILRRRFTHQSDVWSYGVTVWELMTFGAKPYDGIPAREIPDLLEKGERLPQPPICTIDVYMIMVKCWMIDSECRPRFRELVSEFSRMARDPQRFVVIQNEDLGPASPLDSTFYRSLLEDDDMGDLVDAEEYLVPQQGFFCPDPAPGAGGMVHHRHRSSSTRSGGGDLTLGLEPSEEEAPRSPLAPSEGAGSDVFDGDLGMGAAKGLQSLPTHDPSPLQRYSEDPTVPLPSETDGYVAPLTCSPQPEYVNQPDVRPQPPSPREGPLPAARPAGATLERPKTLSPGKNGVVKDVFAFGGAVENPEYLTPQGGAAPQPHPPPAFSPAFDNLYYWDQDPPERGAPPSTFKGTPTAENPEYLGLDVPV
Chain of Cyclin-dependent kinase 4 (P11802 whole entry): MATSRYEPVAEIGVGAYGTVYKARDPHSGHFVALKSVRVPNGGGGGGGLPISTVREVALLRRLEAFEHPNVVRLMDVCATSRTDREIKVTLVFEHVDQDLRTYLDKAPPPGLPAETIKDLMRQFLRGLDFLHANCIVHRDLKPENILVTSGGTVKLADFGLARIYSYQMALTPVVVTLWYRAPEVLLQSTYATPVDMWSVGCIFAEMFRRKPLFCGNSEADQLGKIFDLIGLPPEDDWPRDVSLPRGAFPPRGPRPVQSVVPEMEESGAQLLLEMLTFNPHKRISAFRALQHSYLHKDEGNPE

In the case of `O=C(N/N=C/c1c[nH]c2ccccc12)C(=O)c1cn(Cc2ccc(Cl)cc2)c2ccccc12`, the viability at 10 µM in the series on BT-474 [1] is 22.5%; with MCF7 [2] it was 15%; in the series on MDA-MB-231 [3] it was 17.1%; with HCT-116 [4], 13.3%; with Jurkat [5] it was 20.6%. In addition, the IC50 with BT-474 [6] was 2100 nM; in the series with MCF7 [7] it was 800 nM; in the series with MDA-MB-231 [8], 500 nM; with HCT-116 [9] it was 150 nM; in the series with Jurkat [10] it was 220 nM; in series [17], 600 nM. The Activity in the series on BT-474 [11], in the series with MCF7 [12], in the series on MDA-MB-231 [13], with HCT-116 [14] and with Jurkat [15] was 20 to 25% each time. For the same molecule, the inhibition in the series filed under Sus scrofa [16] is 50%; in the series listed under Sus scrofa [18], “Dose-dependent effect”; in the series filed under Capra hircus, “Dose-dependent effect”. In the series on Jurkat [19], the “fold change (FC)” value is given as 2 - 5. Further, the outcome in the series with MCF7 [20] was Active.
As to `O=C1N=C(C(=O)c2c[nH]c3ccccc23)N/C1=C\c1c[nH]c2cc(O)ccc12`, the IC50 in series [21] came out at 12500 nM; in [22] it was 7400 nM.

The record behind these values is ChEMBL document CHEMBL4138086, “Design and synthesis of bis(indolyl)ketohydrazide-hydrazones: Identification of potent and selective novel tubulin inhibitors” (Eur J Med Chem, 2017).
